# Assay results reported in US20220331303A1, “USE OF AN OREXIN 2 RECEPTOR AGONIST FOR THE TREATMENT OF EXCESSIVE SLEEPINESS” (Takeda Pharmaceutical Company Limited, priority 2019, published 2022).
# Values joined by “and” are separate entries in the source; they are usually repeats but may differ in a detail not shown here. Equal entries are not always repeated.
# Tested on: sleep-deprived healthy volunteers
# Assay: Maintenance of wakefulness test (MWT) in sleep-deprived healthy volunteers
# Type: in vivo, human
# Conditions: for Total Sleep Time LS Mean / Total Sleep Time LS Mean Difference vs Placebo Estimate / Total Wake Time LS Mean / Total Wake Time LS Mean Difference vs Placebo Estimate: M: Modafinil 300 mg; for Duration Total Microsleeps (MWT), LS Mean / Duration Total Microsleeps (MWT), LS Mean Difference vs placebo / Latency to Sleep Onset on MWT, LS Mean / Latency to Sleep Onset on MWT, LS Mean Difference vs placebo / Stage N1 Duration (MWT), LS Mean / Stage N1 Duration (MWT), LS Mean Difference vs placebo / Stage N2 Duration (MWT), LS Mean / Stage N2 Duration (MWT), LS Mean Difference vs placebo / Total Microsleeps (MWT), LS Mean / Total Microsleeps (MWT), LS Mean Difference vs placebo: Modafinil 300 mg (M)
# Experimental: The primary objective of this study was to determine the effect of Compound A (methyl (2R,3S)-3-((methylsulfonyl)amino)-2-(((cis-4-phenylcyclohexyl)oxy)methyl)piperidine-1-carboxylate), 44 mg (low dose [LD]) and 112 mg (high dose [HD]), after a single IV dose (compared to placebo) on promoting wakefulness as measured by sleep latency on the MWT (performed at approximately 2, 4, 6, and 8 hours post-dosing starting at approximately 1:00 AM and then at approximate times of 3:00, 5:00, and 7:00 AM) in sleep-deprived healthy volunteers.
# This was a phase 1b, single-center, randomized, double-blind, double-dummy, placebo- and active-controlled, 4-period Williams design crossover study to evaluate the PK, PD, and safety of Compound A in sleep-deprived healthy volunteers. Compound A was administered as a 9-hour IV infusion.
# Healthy adult male subjects aged 18 to 40 years, inclusive, who satisfied the inclusion and exclusion criteria were enrolled in the trial. On Day 1 of treatment period 1, eligible subjects were equally randomized to 4 treatment sequence groups (sequence 1 to 4) which defined the order of administration for Compound A LD, Compound A HD (both delivered as a 9-hour IV infusion), modafinil 300 mg, and placebo.
# During the day before dosing on Day 1, participants were administered the KSS at scheduled timepoints. A practice MWT session was performed on Day 1 treatment period 1 (only once during the entire study) to familiarize subjects with the procedures. Study drug was administered in the clinic in the evening on Day 1 of each treatment period. Subjects underwent the MWT and KSS at specified timepoints after the start of the infusion. Subjects were required to stay awake between the MWT tests. Following completion of the IV infusion on Day 2, subjects underwent an additional MWT test. When the final MWT test and cognitive testing were completed, subjects were allowed to sleep (recovery sleep) for approximately 6 hours. PSG recording was collected during this time. Subjects were discharged from the unit after completion on Day 2 with continuing actigraphy upon discharge (to begin on Day −6 before the next treatment period). The interval between each subsequent treatment period was at least 7 days to ensure that the subject's circadian rhythm had returned to a normal cycle. Subject's vital signs, including BP, were monitored during the dosing and testing period. Blood samples for determination of Compound A plasma concentrations were collected at specified timepoints on Days 1 and 2 of each treatment period. Subjects completed the Columbia-Suicide Severity Rating Scale (C-SSRS) during screening, before study drug administration, and before discharge on Day 2 of each treatment period.
# Primary endpoint: Latency for each MWT, defined as time to sleep onset.
# [1] = Average Overall, MWT during infusion
# [2] = Modafinil 300 mg, after the end of infusion (1 hour post end of infusion)
structure (smiles),measurement,setting,value
"NC(=O)C[S+]([O-])C(c1ccccc1)c1ccccc1 (centres unmarked) [Modafinil, modafinil, reference compound]",Total Sleep Time LS Mean,2 HOURS POST INFUSION START,0.88 min
same,Total Sleep Time LS Mean Difference vs Placebo Estimate,2 HOURS POST INFUSION START,-1.85 min
same,Total Wake Time LS Mean,2 HOURS POST INFUSION START,34.87 min
same,Total Wake Time LS Mean Difference vs Placebo Estimate,2 HOURS POST INFUSION START,17.15 min
same,Total Sleep Time LS Mean,4 HOURS POST INFUSION START,0.96 min
same,Total Sleep Time LS Mean Difference vs Placebo Estimate,4 HOURS POST INFUSION START,-2.19 min
same,Total Wake Time LS Mean,4 HOURS POST INFUSION START,36.45 min
same,Total Wake Time LS Mean Difference vs Placebo Estimate,4 HOURS POST INFUSION START,26.40 min
same,Total Sleep Time LS Mean,6 HOURS POST INFUSION START,1.25 min
same,Total Sleep Time LS Mean Difference vs Placebo Estimate,6 HOURS POST INFUSION START,-0.98 min
same,Total Wake Time LS Mean,6 HOURS POST INFUSION START,33.11 min
same,Total Wake Time LS Mean Difference vs Placebo Estimate,6 HOURS POST INFUSION START,26.69 min
same,Total Sleep Time LS Mean,8 HOURS POST INFUSION START,2.35 min
same,Total Sleep Time LS Mean Difference vs Placebo Estimate,8 HOURS POST INFUSION START,-0.57 min
same,Total Wake Time LS Mean,8 HOURS POST INFUSION START,22.32 min
same,Total Wake Time LS Mean Difference vs Placebo Estimate,8 HOURS POST INFUSION START,18.67 min
same,Total Sleep Time LS Mean,[1],1.36 min
same,Total Sleep Time LS Mean Difference vs Placebo Estimate,[1],-1.40 min
same,Total Wake Time LS Mean,[1],31.69 min
same,Total Wake Time LS Mean Difference vs Placebo Estimate,[1],22.23 min
same,"Average total wake time (MWT), LS mean difference vs placebo",Modafinil 300 mg,22.23 min
same,"Total sleep time (MWT), LS mean difference vs placebo",Modafinil 300 mg,-1.40 min
same,"Duration Total Microsleeps (MWT), LS Mean",2 hours post infusion start,5.75 s
same,"Duration Total Microsleeps (MWT), LS Mean Difference vs placebo",2 hours post infusion start,-3.05 s
same,"Latency to Sleep Onset on MWT, LS Mean",2 hours post infusion start,35.57 min
same,"Latency to Sleep Onset on MWT, LS Mean Difference vs placebo",2 hours post infusion start,19.89 min
same,"Stage N1 Duration (MWT), LS Mean",2 hours post infusion start,0.47 min
same,"Stage N1 Duration (MWT), LS Mean Difference vs placebo",2 hours post infusion start,-0.68 min
same,"Stage N2 Duration (MWT), LS Mean",2 hours post infusion start,0.36 min
same,"Stage N2 Duration (MWT), LS Mean Difference vs placebo",2 hours post infusion start,-0.49 min
same,"Total Microsleeps (MWT), LS Mean",2 hours post infusion start,1.06
same,"Total Microsleeps (MWT), LS Mean Difference vs placebo",2 hours post infusion start,−0.74
same,"Duration Total Microsleeps (MWT), LS Mean",4 hours post infusion start,7.91 s
same,"Duration Total Microsleeps (MWT), LS Mean Difference vs placebo",4 hours post infusion start,-4.39 s
same,"Latency to Sleep Onset on MWT, LS Mean",4 hours post infusion start,35.60 min
same,"Latency to Sleep Onset on MWT, LS Mean Difference vs placebo",4 hours post infusion start,26.50 min
same,"Stage N1 Duration (MWT), LS Mean",4 hours post infusion start,0.68 min
same,"Stage N1 Duration (MWT), LS Mean Difference vs placebo",4 hours post infusion start,-0.97 min
same,"Stage N2 Duration (MWT), LS Mean",4 hours post infusion start,0.20 min
same,"Stage N2 Duration (MWT), LS Mean Difference vs placebo",4 hours post infusion start,-0.95 min
same,"Total Microsleeps (MWT), LS Mean",4 hours post infusion start,1.27
same,"Total Microsleeps (MWT), LS Mean Difference vs placebo",4 hours post infusion start,−1.08
same,"Duration Total Microsleeps (MWT), LS Mean",6 hours post infusion start,9.70 s
same,"Duration Total Microsleeps (MWT), LS Mean Difference vs placebo",6 hours post infusion start,2.30 s
same,"Latency to Sleep Onset on MWT, LS Mean",6 hours post infusion start,31.89 min
same,"Latency to Sleep Onset on MWT, LS Mean Difference vs placebo",6 hours post infusion start,25.74 min
same,"Stage N1 Duration (MWT), LS Mean",6 hours post infusion start,0.84 min
same,"Stage N1 Duration (MWT), LS Mean Difference vs placebo",6 hours post infusion start,-0.31 min
same,"Stage N2 Duration (MWT), LS Mean",6 hours post infusion start,0.20 min
same,"Stage N2 Duration (MWT), LS Mean Difference vs placebo",6 hours post infusion start,-0.30 min
same,"Total Microsleeps (MWT), LS Mean",6 hours post infusion start,1.85
same,"Total Microsleeps (MWT), LS Mean Difference vs placebo",6 hours post infusion start,0.60
same,"Duration Total Microsleeps (MWT), LS Mean",8 hours post infusion start,12.64 s
same,"Duration Total Microsleeps (MWT), LS Mean Difference vs placebo",8 hours post infusion start,4.84 s
same,"Latency to Sleep Onset on MWT, LS Mean",8 hours post infusion start,20.44 min
same,"Latency to Sleep Onset on MWT, LS Mean Difference vs placebo",8 hours post infusion start,16.91 min
same,"Stage N1 Duration (MWT), LS Mean",8 hours post infusion start,1.15 min
same,"Stage N1 Duration (MWT), LS Mean Difference vs placebo",8 hours post infusion start,0.00 min
same,"Stage N2 Duration (MWT), LS Mean",8 hours post infusion start,0.89 min
same,"Stage N2 Duration (MWT), LS Mean Difference vs placebo",8 hours post infusion start,-0.21 min
same,"Total Microsleeps (MWT), LS Mean",8 hours post infusion start,2.22
same,"Total Microsleeps (MWT), LS Mean Difference vs placebo",8 hours post infusion start,0.92
same,"Duration Total Microsleeps (MWT), LS Mean",average overall,9.00 s
same,"Duration Total Microsleeps (MWT), LS Mean Difference vs placebo",average overall,-0.08 s
same,"Latency to Sleep Onset on MWT, LS Mean",average overall,30.87 min and 30.87 (1.888) min
same,"Latency to Sleep Onset on MWT, LS Mean Difference vs placebo",average overall,22.26 min and 22.3 min and 22.62 min and 22.26 (2.634) min
same,"Stage N1 Duration (MWT), LS Mean",average overall,0.79 min
same,"Stage N1 Duration (MWT), LS Mean Difference vs placebo",average overall,-0.49 min
same,"Stage N2 Duration (MWT), LS Mean",average overall,0.41 min
same,"Stage N2 Duration (MWT), LS Mean Difference vs placebo",average overall,-0.49 min
same,"Total Microsleeps (MWT), LS Mean",average overall,1.60
same,"Total Microsleeps (MWT), LS Mean Difference vs placebo",average overall,−0.08
same,"Latency to Sleep Onset on MWT, LS Mean (SE)",[2],21.42 (2.168)
same,"Latency to Sleep Onset on MWT, LS Mean Difference vs placebo, Estimate (SE)",[2],16 minutes and 16.77 (2.692) minutes
